Source: US8604016B2, “Heterocyclic inhibitors of glutaminase” (Calithera Biosciences Inc., priority 2011, dated 2013)
Where two headings read alike, the source gives them in different places.

Target: recombinant form of Glutaminase 1 (GAC) (Homo sapiens, UniProt O94925)
Assay: Recombinant Enzyme Assay (GAC coupled to GDH, NADH absorbance, no preincubation)
Type: biochemical
Settings: read-out: GAC Delta N2 IC50 no preinc
Procedure: Enzymatic reaction was started with the addition of 50 μL of enzyme solution (50 mM Tris-HCl pH 8.0, 0.2 mM EDTA, 150 mM K2HPO4, 0.1 mg/ml BSA, 1 mM DTT, 10 ppm antifoam, 4 units/ml GDH, 4 mM adenosine diphosphate, and 4 nM GAC) and read in a Molecular Devices M5 plate reader at 20° C. The plate reader was configured to read absorbance (λ=340 nm) in kinetic mode for 15 minutes. Data was recorded as milli-absorbance units per minute and slopes were compared to a control compound and a DMSO-only control on the same plate. Compounds with slopes less than the DMSO control were considered inhibitors and plate variability was assessed using the control compound.

SMILES	IC50 [µM]	IC50 (no preincubation) [µM]
O=C(Nc1nnc(CCSCCc2nnc(NC(=O)c3ccccc3)s2)s1)c1ccccc1 [Compound 2]	4.1	–
COc1ccc(C(=O)Nc2nnc(CCSCCc3nnc(NC(=O)c4ccc(OC)cc4)s3)s2)cc1 [Compound 3]	–	> 50
CC(C)CC(=O)Nc1nnc(CCSCCc2nnc(NC(=O)CC(C)C)s2)s1 [Compound 4]	–	13
CC(=O)OCC(=O)Nc1nnc(CCSCCc2nnc(NC(=O)COC(C)=O)s2)s1 [Compound 5]	–	> 50
CN(C(=O)Cc1ccccc1)c1nnc(CCSCCc2nnc(N(C)C(=O)Cc3ccccc3)s2)s1 [Compound 6]	–	> 50
CCCC(=O)OCN(C(=O)Cc1ccccc1)c1nnc(CCSCCc2nnc(NC(=O)Cc3ccccc3)s2)s1 [Compound 7]	–	> 50
CCCC(=O)OCN(C(=O)Cc1ccccc1)c1nnc(CCSCCc2nnc(N(COC(=O)CCC)C(=O)Cc3ccccc3)s2)s1 [Compound 8]	–	> 50
CC(CCc1nnc(NC(=O)Cc2ccccc2)s1)CCc1nnc(NC(=O)Cc2ccccc2)s1 [Compound 9]	–	> 50
CC(C)(CCc1nnc(NC(=O)Cc2ccccc2)s1)CCc1nnc(NC(=O)Cc2ccccc2)s1 [Compound 10]	–	> 50
O=C(CN1CCOCC1)Nc1nnc(CCSCCc2nnc(NC(=O)CN3CCOCC3)s2)s1 [Compound 12]	–	> 50
CC(=O)OCC(C(=O)Nc1nnc(CCSCCc2nnc(NC(=O)C(COC(C)=O)c3ccccc3)s2)s1)c1ccccc1 (centres unmarked) [Compound 14]	–	2.8
CC(C)(C)C(=O)OCN(C(=O)Cc1ccccc1)c1nnc(CCSCCc2nnc(NC(=O)Cc3ccccc3)s2)s1 [Compound 15]	–	> 50
CC(C)(C)C(=O)OCN(C(=O)Cc1ccccc1)c1nnc(CCSCCc2nnc(N(COC(=O)C(C)(C)C)C(=O)Cc3ccccc3)s2)s1 [Compound 16]	–	> 50
C=CCCC(=O)Nc1nnc(CCSCCc2nnc(NC(=O)CCC=C)s2)s1 [Compound 18]	–	4.5
CC(C(=O)Nc1nnc(CCSCCc2nnc(NC(=O)C(C)c3ccccc3)s2)s1)c1ccccc1 (centres unmarked) [Compound 19]	–	11
CC(C(=O)Nc1nnc(CCSCCc2nnc(N)s2)s1)c1ccccc1 (centres unmarked) [Compound 20]	–	6.6
O=C(Nc1nnc(CCSCCc2nnc(NC(=O)[C@@H]3CCCN3C(=O)C(F)(F)F)s2)s1)[C@@H]1CCCN1C(=O)C(F)(F)F [Compound 22]	–	> 50
Nc1nnc(CCSCCc2nnc(NC(=O)[C@@H]3CCCN3C(=O)C(F)(F)F)s2)s1 [Compound 23]	–	> 50
CC(=O)Nc1nnc(CCSCCc2nnc(NC(=O)Cc3ccccc3)s2)s1 [Compound 25]	–	1.2
O=C(Cc1ccccc1)Nc1nnc(CCSCCc2nnc(N(COC(=O)OCCCN3CCOCC3)C(=O)Cc3ccccc3)s2)s1 [Compound 27]	–	> 50
O=C(OCCCN1CCOCC1)OCN(C(=O)Cc1ccccc1)c1nnc(CCSCCc2nnc(N(COC(=O)OCCCN3CCOCC3)C(=O)Cc3ccccc3)s2)s1 [Compound 28]	–	> 50
O=C(Nc1nnc(CCCCCc2nnc(NC(=O)C(CO)c3ccccc3)s2)s1)C(CO)c1ccccc1 (centres unmarked) [Compound 30]	–	1.2
COC(=O)c1cccc(NC(=O)Nc2nnc(CCSCCc3nnc(NC(=O)Nc4cccc(C(=O)OC)c4)s3)s2)c1 [Compound 31]	–	> 50
CC(C)[C@H](N)C(=O)Nc1nnc(CCSCCc2nnc(NC(=O)Cc3ccccc3)s2)s1 [Compound 32]	–	7
CC(C)[C@H](NC(=O)OC(C)(C)C)C(=O)Nc1nnc(CCSCCc2nnc(NC(=O)Cc3ccccc3)s2)s1 [Compound 33]	–	13
CC(C)[C@H](NC(=O)OC(C)(C)C)C(=O)Nc1nnc(CCSCCc2nnc(NC(=O)[C@@H](NC(=O)OC(C)(C)C)C(C)C)s2)s1 [Compound 34]	–	> 50
O=C(Cc1ccccc1)Nc1nnc(CCSCCc2nnc(NC(=O)[C@@H]3CCCN3C(=O)C(F)(F)F)s2)s1 [Compound 35]	–	18

SMILES	IC50 [µM]	IC50 (no preincubation) [µM]
O=C(Nc1nnc(CCSCCc2nnc(NC(=O)C3CCc4ccccc4C3)s2)s1)C1CCc2ccccc2C1 (centres unmarked) [Compound 37]	–	> 50
O=C(Nc1nnc(CCSCCc2nnc(NC(=O)C3CC4CCC3C4)s2)s1)C1CC2CCC1C2 (centres unmarked) [Compound 38]	–	> 50
O=C(Nc1nnc(CCSCCc2nnc(NC(=O)C3CCCO3)s2)s1)C1CCCO1 (centres unmarked) [Compound 39]	–	26
O=C(Nc1nnc(CCSCCc2nnc(NC(=O)C3CCCC3)s2)s1)C1CCCC1 [Compound 40]	–	3.7
O=C(Nc1nnc(CCSCCc2nnc(NC(=O)C3COc4ccccc4O3)s2)s1)C1COc2ccccc2O1 (centres unmarked) [Compound 41]	–	7.9
CC(C)[C@H](NC(=O)OC(C)(C)C)C(=O)Nc1nnc(CCCCc2nnc(NC(=O)[C@@H](NC(=O)OC(C)(C)C)C(C)C)s2)s1 [Compound 42]	–	> 50
O=C(COc1ccccc1)Nc1nnc(CCCCc2nnc(NC(=O)COc3ccccc3)s2)s1 [Compound 43]	–	2.3
CC(CCc1nnc(NC(=O)Cc2ccccc2)s1)Cc1nnc(NC(=O)Cc2ccccc2)s1 (centres unmarked) [Compound 44]	–	4.9
O=C(Nc1nnc(CCCCc2nnc(NC(=O)C(F)(F)F)s2)s1)C(F)(F)F [Compound 45]	–	> 50
CC(C)(C)OC(=O)N[C@@H](C(=O)Nc1nnc(CCSCCc2nnc(NC(=O)[C@H](NC(=O)OC(C)(C)C)c3ccccc3)s2)s1)c1ccccc1 [Compound 46]	–	> 50
N[C@@H](C(=O)Nc1nnc(CCSCCc2nnc(NC(=O)[C@H](N)c3ccccc3)s2)s1)c1ccccc1 [Compound 47]	–	8.3
O=C(CC1CCCCC1)Nc1nnc(CCSCCc2nnc(NC(=O)CC3CCCCC3)s2)s1 [Compound 48]	–	> 50
C[C@H](NC(=O)OC(C)(C)C)C(=O)Nc1nnc(CCSCCc2nnc(NC(=O)[C@H](C)NC(=O)OC(C)(C)C)s2)s1 [Compound 49]	–	36
O=C(Nc1nnc(CCSCCc2nnc(NC(=O)C3Cc4ccccc4O3)s2)s1)C1Cc2ccccc2O1 (centres unmarked) [Compound 50]	–	2.5
O=C(Nc1nnc(CCCCc2nnc(NC(=O)C3Cc4ccccc4O3)s2)s1)C1Cc2ccccc2O1 (centres unmarked) [Compound 51]	–	1.2
O=C(Nc1nnc(CCCCc2nnc(NC(=O)C3COc4ccccc4O3)s2)s1)C1COc2ccccc2O1 (centres unmarked) [Compound 52]	–	8.3
O=C(Nc1nnc(CCCCc2nnc(NC(=O)C3CCCC3)s2)s1)C1CCCC1 [Compound 53]	–	> 50
O=C(Nc1nnc(CCCCc2nnc(NC(=O)C3CCCO3)s2)s1)C1CCCO1 (centres unmarked) [Compound 54]	–	9.2
O=C(Nc1nnc(CCCCc2nnc(NC(=O)C3CC4CCC3C4)s2)s1)C1CC2CCC1C2 (centres unmarked) [Compound 55]	–	> 50
CC(O)(C(=O)Nc1nnc(CCSCCc2nnc(N)s2)s1)C(F)(F)F (centres unmarked) [Compound 56]	–	> 50
O=C(Cn1cccn1)Nc1nnc(CCSCCc2nnc(NC(=O)Cn3cccn3)s2)s1 [Compound 57]	–	40
O=C(CC1CCCC1)Nc1nnc(CCSCCc2nnc(NC(=O)CC3CCCC3)s2)s1 [Compound 58]	–	> 50
O=C(Nc1nnc(CCSCCc2nnc(NC(=O)C3(C(F)(F)F)CC3)s2)s1)C1(C(F)(F)F)CC1 [Compound 59]	–	> 50
O=C(Cn1cccn1)Nc1nnc(CCCCc2nnc(NC(=O)Cn3cccn3)s2)s1 [Compound 60]	–	24
O=C(CC1CCCC1)Nc1nnc(CCCCc2nnc(NC(=O)CC3CCCC3)s2)s1 [Compound 61]	–	> 50
O=C(Nc1nnc(CCCCc2nnc(NC(=O)C3(C(F)(F)F)CC3)s2)s1)C1(C(F)(F)F)CC1 [Compound 62]	–	> 50
